According to PubChem BioAssay AID548 (The Scripps Research Institute Molecular Screening Center, 2006):
The source made the active and inactive calls. The rule behind the calls is not given here.

Target: cAMP-dependent protein kinase catalytic subunit alpha (Homo sapiens) (UniProt P17612)
Assay: PubChem AID 548
Conditions: Purified PKA, Kemptide, Kinase-Glo ATP luminescence

| SMILES | IC50 |
| --- | --- |
| Nc1c(S(=O)(=O)c2cccc(Cl)c2)c2nc3ccccc3nc2n1/N=C/c1ccc(O)c(O)c1 | > 59.6 µM (inactive) |
| O/N=C/c1c[nH]c2ccccc12 | 34.4 µM |
